Results as given in US11000033B2, “Ketone or oxime compound, and herbicide” (NISSAN CHEMICAL CORPORATION, priority 2014, dated 2021).

Legend:
Format in all cases: in vivo
[1] = system: Setaria viridis; assay: Test Example 4: herbicidal effect by soil treatment (symbol G); conditions: for G (Setaria viridis) herbicidal effect grade: application herbicide amount 320 g/ha
Summary of the method: (§1)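 Seeds were sown in sterilized diluvial soil, covered with about 1.5 cm of soil, and the soil surface was sprayed with a water-diluted emulsion of the compound at a predetermined rate. Plants grew in a greenhouse at 25° C. to 30° C.; effects were scored visually 3 weeks after application.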

[2] = system: beet; assay: Test Example 5: effect on crop by foliage application, plastic box (symbol f); conditions: 320 g/ha, 3 weeks after application
Summary of the method: (§2)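 Plants were raised from seed in a greenhouse (25° C. to 30° C.) after sowing in a plastic box of sterilized diluvial soil.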

[3] = system: rice plant; assay: Test Example 5: effect on crop by foliage application, plastic box (symbol b); conditions: 320 g/ha, 3 weeks after application
Summary of the method: as §2

[4] = system: Monochoria vaginalis; assay: Test Example 1: herbicidal activity, application before weed generation in submerged conditions (symbol C); conditions: application herbicide amount 320 g/ha
Summary of the method: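 Ratings (5: ≥90%, near complete withering; 4: 70–<90%; 3: 40–<70%; 2: 20–<40%; 1: 5–<20%; 0: ≤5%) were assigned 3 weeks after the diluted emulsion was applied to the water surface of freshly sown, submerged pots.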

[5] = system: Stellaria media; assay: Test Example 4: herbicidal effect by soil treatment (symbol P); conditions: for P (Stellaria media) herbicidal effect grade: application herbicide amount 320 g/ha
Summary of the method: as §1

[6] = system: Veronica persica; assay: Test Example 4: herbicidal effect by soil treatment (symbol R); conditions: for R (Veronica persica) herbicidal effect grade: application herbicide amount 320 g/ha
Summary of the method: as §1

[7] = system: Avena fatua; assay: Test Example 5: herbicidal effect by foliage application, plastic box (symbol I); conditions: 320 g/ha, 3 weeks after application
Summary of the method: (§3)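 Effect is rated 3 weeks after a foliar spray of water-diluted emulsion concentrate at a predetermined herbicide amount. Plants had grown 14 days in a 25° C. to 30° C. greenhouse from seed in sterilized diluvial soil.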

[8] = system: Echinochloa oryzacola Vasing.; assay: Test Example 2: herbicidal activity, application during weed generation in submerged conditions (symbol A); conditions: Table 23; application herbicide amount 320 g/ha; grade 0-5 by criteria of Test Example 1
Summary of the method: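 Treatment timing was the one- to two-leaf stage, with diluted emulsifiable compound dropped onto the paddy water (depth 4 cm) over alluvial soil. All three species grew from a mixed sowing in a 25° C. to 30° C. greenhouse. Injury was judged by eye 3 weeks on.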

[9] = system: Chenopodium album; assay: Test Example 5: herbicidal effect by foliage application, plastic box (symbol O); conditions: 320 g/ha, 3 weeks after application
Summary of the method: as §3

[10] = system: Apera spica-venti; assay: Test Example 4: herbicidal effect by soil treatment (symbol L); conditions: for L (Apera spica-venti) herbicidal effect grade: application herbicide amount 320 g/ha
Summary of the method: as §1

[11] = system: Setaria viridis; assay: Test Example 5: herbicidal effect by foliage application, plastic box (symbol G); conditions: 320 g/ha, 3 weeks after application
Summary of the method: as §3

[12] = system: Amaranthus retroflexus; assay: Test Example 4: herbicidal effect by soil treatment (symbol N); conditions: for N (Amaranthus retroflexus) herbicidal effect grade: application herbicide amount 320 g/ha
Summary of the method: as §1

SMILES | G (Setaria viridis) herbicidal effect grade [1] | f: beet, effect on crop grade [2] | b: directly sowed rice plant, effect on crop grade [3] | Herbicidal effect grade, C: Monochoria vaginalis [4] | P (Stellaria media) herbicidal effect grade [5] | R (Veronica persica) herbicidal effect grade [6] | I: Avena fatua, herbicidal effect grade [7] | Herbicidal effect grade, A: Echinochloa oryzacola Vasing. [8] | O: Chenopodium album, herbicidal effect grade [9] | L (Apera spica-venti) herbicidal effect grade [10] | G: Setaria viridis, herbicidal effect grade [11] | N (Amaranthus retroflexus) herbicidal effect grade [12] | further results
COCCON=C(C)CC1CC(O)=C(c2c(C)cc(C)cc2C)C1=O (stereo not drawn) [1-041] | 5 (Herbicidal ratio of 90% or more (almost completely withered)) | 1 (Herbicidal ratio of 5% or higher and lower than 20%) | 5 (Herbicidal ratio of 90% or more (almost completely withered)) | 0 (Herbicidal ratio of 5% or lower (almost no effect)) | 0 (Herbicidal ratio of 5% or lower (almost no effect)) | 3 (Herbicidal ratio of 40% or higher and lower than 70%) | 5 (Herbicidal ratio of 90% or more (almost completely withered)) | 5 (Herbicidal ratio of 90% or more (almost completely withered)) | 3 (Herbicidal ratio of 40% or higher and lower than 70%) | 5 (Herbicidal ratio of 90% or more (almost completely withered)) | 5 (Herbicidal ratio of 90% or more (almost completely withered)) | 3 (Herbicidal ratio of 40% or higher and lower than 70%) | –
CON=C(CC1CC(O)=C(c2c(C)cc(C)cc2C)C1=O)c1ccccn1 (stereo not drawn) [1-045] | 0 (Herbicidal ratio of 5% or lower (almost no effect)) | 0 (Herbicidal ratio of 5% or lower (almost no effect)) | 5 (Herbicidal ratio of 90% or more (almost completely withered)) | 0 (Herbicidal ratio of 5% or lower (almost no effect)) | 0 (Herbicidal ratio of 5% or lower (almost no effect)) | – | 5 (Herbicidal ratio of 90% or more (almost completely withered)) | 3 (Herbicidal ratio of 40% or higher and lower than 70%) | 0 (Herbicidal ratio of 5% or lower (almost no effect)) | 0 (Herbicidal ratio of 5% or lower (almost no effect)) | 5 (Herbicidal ratio of 90% or more (almost completely withered)) | 0 (Herbicidal ratio of 5% or lower (almost no effect)) | –
CC(CC1CC(O)=C(c2c(C)cc(C)cc2C)C1=O)=NOCC=CCl (stereo not drawn) [1-056] | 5 (Herbicidal ratio of 90% or more (almost completely withered)) | 0 (Herbicidal ratio of 5% or lower (almost no effect)) | 5 (Herbicidal ratio of 90% or more (almost completely withered)) | 4 (Herbicidal ratio of 70% or higher and lower than 90%) | 0 (Herbicidal ratio of 5% or lower (almost no effect)) | 0 (Herbicidal ratio of 5% or lower (almost no effect)) | 5 (Herbicidal ratio of 90% or more (almost completely withered)) | 5 (Herbicidal ratio of 90% or more (almost completely withered)) | 1 (Herbicidal ratio of 5% or higher and lower than 20%) | 5 (Herbicidal ratio of 90% or more (almost completely withered)) | 5 (Herbicidal ratio of 90% or more (almost completely withered)) | 3 (Herbicidal ratio of 40% or higher and lower than 70%) | –
CON=C(CC1CC(OC(=O)COc2ccccc2)=C(c2c(C)cc(C)cc2C)C1=O)C1CC1 (stereo not drawn) [1-063] | 5 (Herbicidal ratio of 90% or more (almost completely withered)) | 0 (Herbicidal ratio of 5% or lower (almost no effect)) | 5 (Herbicidal ratio of 90% or more (almost completely withered)) | 0 (Herbicidal ratio of 5% or lower (almost no effect)) | – | 0 (Herbicidal ratio of 5% or lower (almost no effect)) | 5 (Herbicidal ratio of 90% or more (almost completely withered)) | 4 (Herbicidal ratio of 70% or higher and lower than 90%) | 0 (Herbicidal ratio of 5% or lower (almost no effect)) | 5 (Herbicidal ratio of 90% or more (almost completely withered)) | 5 (Herbicidal ratio of 90% or more (almost completely withered)) | 0 (Herbicidal ratio of 5% or lower (almost no effect)) | –
CON=C(C)CC1CC(OC(=O)C(C)(C)Oc2ccccc2Cl)=C(c2c(C)cc(C)cc2C)C1=O (stereo not drawn) [1-064] | 5 (Herbicidal ratio of 90% or more (almost completely withered)) | 1 (Herbicidal ratio of 5% or higher and lower than 20%) | 5 (Herbicidal ratio of 90% or more (almost completely withered)) | 1 (Herbicidal ratio of 5% or higher and lower than 20%) | 0 (Herbicidal ratio of 5% or lower (almost no effect)) | 0 (Herbicidal ratio of 5% or lower (almost no effect)) | 5 (Herbicidal ratio of 90% or more (almost completely withered)) | 5 (Herbicidal ratio of 90% or more (almost completely withered)) | 0 (Herbicidal ratio of 5% or lower (almost no effect)) | 5 (Herbicidal ratio of 90% or more (almost completely withered)) | 5 (Herbicidal ratio of 90% or more (almost completely withered)) | 4 (Herbicidal ratio of 70% or higher and lower than 90%) | –
CON=C(CC1CC(O)=C(c2c(C)cc(C)cc2C)C1=O)C1CCCC1 (stereo not drawn) [1-078] | – | – | – | 0 (Herbicidal ratio of 5% or lower (almost no effect)) | – | – | – | 4 (Herbicidal ratio of 70% or higher and lower than 90%) | – | – | – | – | G: Setaria viridis, herbicidal effect grade ([1]; 320 g/ha): 5 (Herbicidal ratio of 90% or more (almost completely withered)); f: beet, effect on crop (criteria 0-5) [2]: 0 (Herbicidal ratio of 5% or lower (almost no effect)); b: directly sowed rice plant, effect on crop (criteria 0-5) [3]: 5 (Herbicidal ratio of 90% or more (almost completely withered)); P: Stellaria media, herbicidal effect grade ([5]; 320 g/ha): 0 (Herbicidal ratio of 5% or lower (almost no effect)); R: Veronica persica, herbicidal effect grade ([6]; 320 g/ha): 0 (Herbicidal ratio of 5% or lower (almost no effect)); I: Avena fatua, herbicidal effect (criteria 0-5) [7]: 1 (Herbicidal ratio of 5% or higher and lower than 20%); L: Apera spica-venti, herbicidal effect grade ([10]; 320 g/ha): 4 (Herbicidal ratio of 70% or higher and lower than 90%); G: Setaria viridis, herbicidal effect (criteria 0-5) [11]: 5 (Herbicidal ratio of 90% or more (almost completely withered)); N: Amaranthus retroflexus, herbicidal effect grade ([12]; 320 g/ha): 0 (Herbicidal ratio of 5% or lower (almost no effect))
